No end group written: not given here.
Assays:
[1] = test system: SAg-specific hybridoma cells with fresh or fixed APC (VAVY) cells, MHCII; assay: Antigen processing independent presentation system (APIPS) assay; type: cell-based, DR3tg mice; conditions: 10 or 25 µg/ml peptide, IL-2 ELISA after 48 h
Experimental: FIG. 10: Variants of peptide 15N3K are apitopes. The ability of variants of the 15N3K peptide to behave as apitopes (i.e. bind to an MHCII molecule and be presented to a T cell by an antigen-presenting cell without undergoing antigen processing) was tested using an APIPS assay. DR3tg mice were immunised with SAg and hybridoma’s were generated. 5*10^4 SAg-specific hybridoma cells were cultured with 5*10^4 fresh or fixed commercial APC (VAVY) cells. Cultures were stimulated with 10 or 25 µg/ml of peptide, as indicated in the graph. T cell activation was measured by IL-2 ELISA on supernatants collected after 48 h. The graph represents the mean of duplicate measurements ± SEM.
Apitopes (Antigen Processing-Independent epiTOPES) are capable of binding to an MHCII molecule and stimulating a response from SAg-specific T cells without further antigen processing. Variants of peptide 15N3K (SEQ ID NO: 3) were tested for their ability to bind to an MHCII molecule and be presented to a T cell hybridoma without further antigen processing in an in vitro antigen processing independent presentation system (APIPS) assay. In other words, peptides consisting of parts of peptide 15N3K and peptides with various degrees of sequence identity with peptide 15N3K were tested for their ability to behave as apitopes.
All but three of the peptides are apitopes.
Antigen-specific hybridoma clones were tested for their reactivity to the peptides, presented by fixed or not fixed (fresh) cells (APCs). 5x10^4 cells were cultured with 10 µg/ml and 25 µg/ml peptide and 5x10^4 fixed or fresh APCs. To fix APCs, cells were incubated with 0.5% paraformaldehyde (Merck, Darmstadt, Germany) (pH7) for 5 min at room temperature (RT). The fixation reaction was stopped by adding 0.4 M glycine (Sigma-Aldrich) and washing the cells in RPMI-10% FCS. After 48 h, antigen-induced IL-2 production was measured by ELISA (R&D Systems, Abingdon, UK).

[2] = molecular target: HLA-DRA1*0101, DRB1*0401 (DR4) (Homo sapiens, UniProt P01903+P01911, A100K/A169T/F76Y/I96L/K127E/L162R/M171V/N62H/P40V/Q125Y/R42H/S133A/S149N/S66Y/V115G/V209L/W38E); assay: DR4
Experimental: (§1) Table printed on a drawing sheet, Figure 9
(§2) The patent's description of the figure: FIG. 9: Diverse patterns of in vitro peptide-MHC II binding for peptides 9K1, 17JK and 15N3K. Binding of peptides 9K1, 17JK and 15N3K to recombinant HLA-DRA1*0101, DRB1*0101 (DR1), DRB1*1501 (DR2), DRB1*0301 (DR3), DRB1*0401 (DR4), DRB1*1101 (DR11), DRB1*0405 (DR4*05) and DRB1*0901 (DR9) was assessed in vitro. IC50 values (µM) are presented and colour-coded per HLA-DR molecule. Low values (green) indicate strong binding, high values (red) indicate low(er) binding.
(§3) FIG. 9 depicts IC50 (µM) values of peptides 9K1K, 17JK and 15N3K binding to the indicated HLA-DR molecules and competing with a known competitor peptide. Values should be compared only within each HLA-DR molecule. Low IC50 values (green) indicate the strongest binder per HLA-DR molecule. Highest values per HLA-DR molecule (red) are indicative of the lowest binder for that HLA-DR molecule. Intermediate values are indicated in orange. […]
(§4) First copying reader's note: The sheet prints no unit; per the patent description the values are IC50 (µM) for peptide binding to the named HLA-DR molecules, with cell shading coding relative binding strength per HLA-DR molecule.
Where the first naming reader finds the target: description_of_the_figure: recombinant HLA-DRA1*0101, DRB1*0101 (DR1), DRB1*1501 (DR2), DRB1*0301 (DR3), DRB1*0401 (DR4)

[3] = molecular target: HLA-DRA1*0101, DRB1*1101 (DR11) (Homo sapiens, UniProt P01903+P01911, A100R/A169T/A87E/I96F/K41T/L162R/M171V/P40S/Q125H/Q178H/Q39Y/Q99D/R42S/S66Y/T262R/V115G/W38E); assay: DR11
Experimental: as §1, §2, §3, §4
Where the first naming reader finds the target: description_of_the_figure: recombinant HLA-DRA1*0101, DRB1*0101 (DR1), DRB1*1501 (DR2), DRB1*0301 (DR3), DRB1*0401 (DR4), DRB1*1101 (DR11)

Chain of HLA-DRA1*0101, DRB1*1101 (DR11) (P01903 26-254 limits assumed, other chains not shown): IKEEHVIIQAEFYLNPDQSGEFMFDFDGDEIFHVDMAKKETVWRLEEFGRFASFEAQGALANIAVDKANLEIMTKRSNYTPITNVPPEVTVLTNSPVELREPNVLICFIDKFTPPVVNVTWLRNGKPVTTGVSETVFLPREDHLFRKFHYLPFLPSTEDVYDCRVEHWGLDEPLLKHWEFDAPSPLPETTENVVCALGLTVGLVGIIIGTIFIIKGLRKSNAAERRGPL

| IC50 [3] [nM] | Substance | Apitope [1] | IC50 [2] [nM] |
| --- | --- | --- | --- |
|  | KKKVIFKKISRDKSVTIYLGKKK-NH2 [15N3K] | Yes | 840 |
| 880 | KKKLTFRRDLYFSRVQVYKKK-NH2 [17JK] |  |  |

Source: patent US20230203126A1, “A COMPOSITION COMPRISING S-ARRESTIN PEPTIDES” (WORG PHARMACEUTICALS (HANGZHOU) CO., LTD., priority 2019, published 2023)
